Test results reported in ChEMBL document CHEMBL3351535, “Identification of novel phenyl butenonyl C-glycosides with ureidyl and sulfonamidyl moieties as antimalarial agents” (ACS Med Chem Lett, 2014).

Assays:
Plasmodium falciparum [1] = assay: Antimalarial activity against Plasmodium falciparum 3D7 after 72 hrs by SYBR Green fluorescence assay; type: functional, organism-based; conditions: 3D7, 72 h
Plasmodium falciparum [2] = assay: Antimalarial activity against Plasmodium falciparum K1 after 72 hrs by SYBR Green fluorescence assay; type: functional, organism-based; conditions: K1, 72 h
[3] = Cytotoxicity against african green monkey Vero cells after 2 days by resazurin assay; type: cell-based; conditions: chlorocebus sabaeus
Heme = assay: Inhibition of heme polymerization in Plasmodium yoelii nigeriensis infected erythrocytes (unknown origin) extract at 100 uM after 4 hrs by spectrophotometry
[4] = Terminal elimination half-life in Sprague-Dawley rat at 5 mg/kg, iv; type: ADME, organism-based; parameters: dose 5 mg/kg, route intravenous; conditions: in vivo, read-out: beta t1/2 (converted)
[5] = Volume of distribution in Sprague-Dawley rat at 5 mg/kg, iv; type: ADME, organism-based; parameters: dose 5 mg/kg, route intravenous; conditions: in vivo
[6] = Systemic clearance in Sprague-Dawley rat at 5 mg/kg, iv; type: ADME, organism-based; parameters: dose 5 mg/kg, route intravenous; conditions: in vivo

SMILES | IC50 (Plasmodium falciparum [1]) [µM] | IC50 (Plasmodium falciparum [2]) [µM] | inhibition (Heme) [%] | half-life [4] [h] | Vd [5] [L/kg] | clearance [6] [mL/min/kg] | CC50 at 48 h [3] [µM]
Cc1ccc(S(=O)(=O)Nc2ccccc2)cc1 | > 20 | > 20 |  |  |  |  | 221
CC(=O)OC[C@H]1O[C@@H](CC(=O)/C=C/c2cccc(NC(=S)Nc3ccccc3)c2)[C@@H](OC(C)=O)[C@@H](OC(C)=O)[C@@H]1OC(C)=O | 3.73 | 2.87 |  |  |  |  | 65.1
CC(=O)OC[C@H]1O[C@@H](CC(=O)/C=C/c2cccc(NC(=S)Nc3ccccc3)c2)[C@H](OC(C)=O)[C@@H](OC(C)=O)[C@@H]1OC(C)=O | 1.91 | 4.48 |  |  |  |  | 337
O=C(/C=C/c1cccc(NC(=S)Nc2ccccc2)c1)C[C@@H]1OC[C@@H](O)[C@H](O)[C@H]1O | 6.89 | 8.69 |  |  |  |  | 289
O=C(/C=C/c1cccc(NC(=S)Nc2ccccc2)c1)C[C@@H]1O[C@H](CO)[C@@H](O)[C@H](O)[C@H]1O | 9.43 | 7.2 |  |  |  |  | 371
CC(=O)OC[C@H]1O[C@@H](CC(=O)/C=C/c2cccc(NC(=O)Nc3ccccc3)c2)[C@@H](OC(C)=O)[C@@H](OC(C)=O)[C@@H]1OC(C)=O | 6.65 | 7.81 |  |  |  |  | 102
O=C(/C=C/c1cccc(NC(=O)Nc2ccccc2)c1)C[C@@H]1OC[C@@H](O)[C@H](O)[C@H]1O | 3.44 | 5.43 |  |  |  |  | 309
CCOC(=O)/C=C/c1cccc(NC(=S)Nc2ccccc2)c1 | > 20 | > 20 |  |  |  |  | 279
COc1ccc(NC(=O)Nc2ccccc2)c([N+](=O)[O-])c1 | > 20 | 18 |  |  |  |  | 356
CC(=O)O[C@@H]1[C@@H](OC(C)=O)[C@H](OC(C)=O)CO[C@H]1CC(=O)/C=C/c1cccc(NC(=O)Nc2ccccc2)c1 | 3.17 | 4.92 | 76.9 |  |  |  | 102
CC(=O)OC[C@H]1O[C@@H](CC(=O)/C=C/c2ccc(NC(=O)Nc3ccccc3)cc2)[C@H](OC(C)=O)[C@@H](OC(C)=O)[C@@H]1OC(C)=O | 5.27 | 5.55 |  |  |  |  | 820
CCOC(=O)/C=C/c1cccc(NC(=O)Nc2ccccc2)c1 | 8.8 | 13.4 |  |  |  |  | 293
O=C(/C=C/c1ccc(NC(=S)Nc2ccccc2)cc1)C[C@@H]1O[C@H](CO)[C@@H](O)[C@H](O)[C@H]1O | 11.8 | 13.8 |  |  |  |  | 274
COc1ccc(NC(=O)Nc2cccc(/C=C/C(=O)C[C@@H]3O[C@H](CO)[C@@H](O)[C@H](O)[C@H]3O)c2)c([N+](=O)[O-])c1 | 0.56 | 1.58 |  | 7.1 | 2.8 | 17 | 709
O=C(/C=C/c1cccc(NC(=O)Nc2ccccc2)c1)C[C@@H]1O[C@H](CO)[C@@H](O)[C@H](O)[C@H]1O | 3.77 | 3.39 |  |  |  |  | 373
O=C(/C=C/c1ccc(NC(=O)Nc2ccc3ccccc3c2)cc1)C[C@@H]1O[C@H](CO)[C@@H](O)[C@H](O)[C@H]1O | 5.91 | 5.28 |  |  |  |  | 1020
CC(=O)OC[C@H]1O[C@@H](CC(=O)/C=C/c2cccc(NS(=O)(=O)c3ccc(C)cc3)c2)[C@@H](OC(C)=O)[C@@H](OC(C)=O)[C@@H]1OC(C)=O | 3.96 | 5.19 |  |  |  |  | 123
COc1cc([N+](=O)[O-])ccc1NC(=S)Nc1cccc(/C=C/C(=O)C[C@@H]2O[C@H](CO)[C@@H](O)[C@H](O)[C@H]2O)c1 | 3.35 | 2.47 |  |  |  |  | 203
Cc1ccc(S(=O)(=O)Nc2cccc(/C=C/C(=O)C[C@@H]3O[C@H](CO)[C@@H](O)[C@H](O)[C@@H]3O)c2)cc1 | 3.89 | 5.11 |  |  |  |  | 417
CC(=O)OC[C@H]1O[C@@H](CC(=O)/C=C/c2ccc(NC(=S)Nc3ccccc3)cc2)[C@H](OC(C)=O)[C@@H](OC(C)=O)[C@@H]1OC(C)=O | 1.83 | 2.3 |  |  |  |  | 663
O=C(/C=C/c1cccc(NC(=O)Nc2ccccc2)c1)C[C@@H]1O[C@H](CO)[C@@H](O)[C@H](O)[C@@H]1O | 20 | 20 |  |  |  |  | 
COc1ccc(NC(=O)Nc2cccc(/C=C/C(=O)C[C@@H]3O[C@H](COC(C)=O)[C@@H](OC(C)=O)[C@H](OC(C)=O)[C@H]3OC(C)=O)c2)c([N+](=O)[O-])c1 | 0.94 | 4.23 | 92.7 |  |  |  | 730
CCN(CC)CCCC(C)Nc1ccnc2cc(Cl)ccc12 (centres undefined) [CHLOROQUINE] |  |  |  |  |  |  | 685
COc1cc([N+](=O)[O-])ccc1NC(=S)Nc1cccc(/C=C/C(=O)C[C@@H]2O[C@H](COC(C)=O)[C@@H](OC(C)=O)[C@H](OC(C)=O)[C@H]2OC(C)=O)c1 | 0.55 | 0.42 | 72.1 |  |  |  | 559

The next lines start with results.

IC50 (Plasmodium falciparum [1]) [µM] | IC50 (Plasmodium falciparum [2]) [µM] | inhibition (Heme) [%] | half-life [4] [h] | Vd [5] [L/kg] | clearance [6] [mL/min/kg] | SMILES | CC50 at 48 h [3] [µM]
1.39 | 3 |  |  |  |  | CC(=O)O[C@@H]1[C@@H](OC(C)=O)[C@H](OC(C)=O)CO[C@H]1CC(=O)/C=C/c1cccc(NS(=O)(=O)c2ccc(C)cc2)c1 | 268
2.29 | 2.4 | 72.5 |  |  |  | CC(=O)OC[C@H]1O[C@@H](CC(=O)/C=C/c2cccc(NC(=O)Nc3ccccc3)c2)[C@H](OC(C)=O)[C@@H](OC(C)=O)[C@@H]1OC(C)=O | 180
13.1 | 17.8 |  |  |  |  | O=C(/C=C/c1cccc(NC(=S)Nc2ccccc2)c1)C[C@@H]1O[C@H](CO)[C@@H](O)[C@H](O)[C@@H]1O | 336
7.51 | 7.66 |  |  |  |  | O=C(/C=C/c1ccc(NC(=O)Nc2ccccc2)cc1)C[C@@H]1O[C@H](CO)[C@@H](O)[C@H](O)[C@H]1O | 1130
4.2 | 5.57 |  |  |  |  | CC(=O)O[C@@H]1[C@@H](OC(C)=O)[C@H](OC(C)=O)CO[C@H]1CC(=O)/C=C/c1cccc(NC(=S)Nc2ccccc2)c1 | 58.7
2.18 | 5.36 |  |  |  |  | CC(=O)OC[C@H]1O[C@@H](CC(=O)/C=C/c2ccc(NC(=O)Nc3ccc4ccccc4c3)cc2)[C@H](OC(C)=O)[C@@H](OC(C)=O)[C@@H]1OC(C)=O | 482
1.14 | 2.17 |  |  |  |  | CC(=O)OC[C@H]1O[C@@H](CC(=O)/C=C/c2cccc(NS(=O)(=O)c3ccc(C)cc3)c2)[C@H](OC(C)=O)[C@@H](OC(C)=O)[C@@H]1OC(C)=O | 584
2.93 | 6.35 |  |  |  |  | Cc1ccc(S(=O)(=O)Nc2cccc(/C=C/C(=O)C[C@@H]3OC[C@@H](O)[C@H](O)[C@H]3O)c2)cc1 | 94.7
16.1 | 16.1 |  |  |  |  | CCOC(=O)/C=C/c1cccc(NS(=O)(=O)c2ccc(C)cc2)c1 | 77.1
2.2 | 3.87 |  |  |  |  | Cc1ccc(S(=O)(=O)Nc2cccc(/C=C/C(=O)C[C@@H]3O[C@H](CO)[C@@H](O)[C@H](O)[C@H]3O)c2)cc1 | 381
13.8 | > 20 |  |  |  |  | O=C(Nc1ccccc1)Nc1ccccc1 | 352
